Earlier results, collected in patent publication US20130030007A1, “Obesity Small Molecules” (AKRON MOLECULES GMBH, priority 2010, published 2013).
Where a name gives a salt, the structure may show the parent alone. Starred links: 1 amine or outer side, 2 acyl side, 3 side chain; linkers in the order of their positions; H or OH if unused. Positions of bridges follow the written chain, without caps; N, C: chain ends. Non-standard residues stand in square brackets, D forms with d. Residues, ends and D or L forms follow the SMILES beside them. *: point of attachment. Adda = CO[C@@H](Cc1ccccc1)[C@@H](C)/C=C(C)/C=C/[C@H](N[*:1])[C@H](C)C(=O)[*:2]; dAsp(3S-Me) = C[C@H](C(=O)[*:3])[C@@H](N[*:1])C(=O)[*:2]; d(γGlu) = O=C(O)[C@@H](CCC(=O)[*:2])N[*:1]; Cbz = O=C(OCc1ccccc1)*; NMeDha = C=C(NC)C(=O)O

System: human ortholog of Drosophila obesity gene
Set-up: key: O: Obesity - obesity pathway interaction; B: validated binding partner
Settings: cited from earlier work

| Compound | Type: Type of interaction |
| --- | --- |
| CCCCCCCNS(=O)(=O)c1cccc2c(Cl)cccc12 | B |
| COc1ccc(C2=N[C@@H](c3ccc(Cl)cc3)[C@@H](c3ccc(Cl)cc3)N2C(=O)N2CCNC(=O)C2)c(OC(C)C)c1 (racemic) [nutlin 3] | O |
| Nc1nc2[nH]cc(CCc3ccc(C(=O)N[C@@H](CCC(=O)O)C(=O)O)cc3)c2c(=O)[nH]1 [LY231514] | O |
| C=C1C(=O)N[C@H](C)C(=O)N[C@@H](CC(C)C)C(=O)N[C@@H](C(=O)O)[C@H](C)C(=O)N[C@@H](CCCNC(=N)N)C(=O)N[C@@H](/C=C/C(C)=C/[C@H](C)[C@H](Cc2ccccc2)OC)[C@H](C)C(=O)N[C@@H](C(=O)O)CCC(=O)N1C [MCYST-LR] (R[Adda][d(γGlu)][NMeDha][dA]L[dAsp(3S-Me)]-OH; lactam N-7) | O |
| CS(=O)(=O)c1cc(F)cc2c3c(n(Cc4ccc(Cl)cc4)c12)[C@@H](CC(=O)O)CC3 [MK-0524] | B |
| CSC[C@H]1O[C@@H](n2cnc3c(N)ncnc32)[C@H](O)[C@@H]1O [MeSAdo] | B |
| CCCC(C)C1(CC)C(=O)NC(=O)NC1=O (stereo not drawn) [Mebumal] | O |
| CC(=O)O[C@]1(C(C)=O)CC[C@H]2[C@@H]3C[C@H](C)C4=CC(=O)CC[C@]4(C)[C@H]3CC[C@@]21C [Medroxyprogesterone 17-Acetate] | B |
| CCCC(C)(COC(N)=O)COC(N)=O [Meprobamate] | O |
| CNC[C@H](O)c1cccc(O)c1 [Mesaton] | B |
| CN[C@@H](C)Cc1ccccc1 [Meth] | O |
| COc1ccc2c(c1)C13CCCCC1C(C2)N(C)CC3 (stereo not drawn) [Methorphan] | O |
| CSc1ncnc2c1ncn2[C@@H]1O[C@H](CO)[C@@H](O)[C@H]1O [Methylthioinosine] | B |
| C[C@]1(O)CC[C@H]2[C@@H]3CCC4=CC(=O)CCC4=C3C=C[C@@]21C [Metribolone] | B |
| c1cncnc1 [Miazine] | B |
| CCCOC(C(=O)OC1CCN(C)CC1)(c1ccccc1)c1ccccc1 [Mictonorm] | B |
| Cc1ncc2n1-c1ccc(Cl)cc1C(c1ccccc1F)=NC2 [Midazolam] | O |

| Compound | Type: Type of interaction |
| --- | --- |
| C[C@@H]1C[C@H]2O[C@@H]2/C=C\C=C\C(=O)Cc2c(Cl)c(O)cc(O)c2C(=O)O1 [Monorden] | B |
| C/C=C1/C(=O)N[C@@H](C(=O)O)[C@H](C)C(=O)N[C@@H](C(C)C)C(=O)N[C@@H](/C=C/C(C)=C/[C@H](C)[C@H](Cc2ccccc2)OC)[C@H](C)C(=O)N[C@@H](C(=O)O)CCC(=O)N1C [Motuporin] | O |
| Cn1cnc([N+](=O)[O-])c1Sc1ncnc2nc[nH]c12 [Muran] | O |
| C[C@@H]1O[C@H](C[N+](C)(C)C)C[C@H]1O [Muscarine] | B |
| Nc1ccc(CCN2CN(c3ccccc3)C3(CCN(CCCC(=O)c4ccc(F)cc4)CC3)C2=O)cc1 [N-(4-aminophenethyl)spiroperidol] | B |
| CC(NC(N)=O)c1cc2ccccc2s1 (stereo not drawn) [N-dehydroxyzileuton] | O |
| O=C1CC(=O)N(c2ccccc2)c2cc(Cl)ccc2N1 [N-desmethylclobazam] | B |
| COc1ccccc1N1CCN(CC(C(=O)NC(C)(C)C)c2ccccc2)CC1 (stereo not drawn) [N-tert-butyl-3-[4-(2-methoxyphenyl)piperazin-1-yl]-2-phenylpropanamide] | B |
| CCCC(=O)[O-].[Na+] [NABU] | O |
| CN[C@H](CC(=O)O)C(=O)O [NMDA] | O |
| CCN(CC)CCCC(C)Nc1nc(C)cc(Nc2ccc3nc(C)cc(N)c3c2)n1 (stereo not drawn) [NSC 23766] | B |
| Nc1nc(OCC2CCCCC2)c2[nH]cnc2n1 [NU2058] | B |
| NS(=O)(=O)c1ccc(Nc2nc(OCC3CCCCC3)c3[nH]cnc3n2)cc1 [NU6102] | B |
| Nc1ncnc2c1c(-c1cccc(OCc3ccccc3)c1)cn2C1CC(CN2CCC2)C1 (stereo not drawn) [NVP-AEW541] | O |
| NC[C@@H]1O[C@H](O[C@H]2[C@@H](O)[C@H](O[C@@H]3[C@@H](O)[C@H](N)C[C@H](N)[C@H]3O[C@H]3O[C@H](CN)[C@@H](O)[C@H](O)[C@H]3N)O[C@@H]2CO)[C@H](N)[C@@H](O)[C@@H]1O [Neomycin] | B |
| Oc1ccc2c3c1O[C@H]1c4[nH]c5c(c4C[C@@]4(O)[C@@H](C2)N(CC2CC2)CC[C@]314)C[C@@]1(O)[C@H]2Cc3ccc(O)c4c3[C@@]1(CCN2CC1CC1)[C@H]5O4 [Norbinaltorphimine] | O |

Same assay, conditions: interaction of the small molecule with the human ortholog(s) / Drosophila gene(s) listed in the same table line; cited from earlier work

| Compound | Type: Type of interaction |
| --- | --- |
| O=c1c(O)c(-c2ccc(O)cc2O)oc2cc(O)cc(O)c12 [MORIN] | O |
| COc1ccc(Cl)cc1C(=O)NCCc1ccc(S(=O)(=O)NC(=O)NC2CCCCC2)cc1 [Malix] | B |
| CCC(=O)O[C@@H]1CC(=O)O[C@H](C)C/C=C/C=C/[C@H](O)[C@H](C)C[C@H](CC=O)[C@H](O[C@@H]2O[C@H](C)[C@@H](O[C@H]3C[C@@](C)(O)[C@@H](OC(=O)CC)[C@H](C)O3)[C@H](N(C)C)[C@H]2O)[C@H]1OC [Medemycin] | O |
| COc1ccc2[nH]cc(CCNC(C)=O)c2c1 [Melatol] | B |
| CC12CC3CC(C)(C1)CC(N)(C3)C2 [Memantine] | B |
| CC(C)=CCC/C(C)=C/CC/C(C)=C/CC/C(C)=C/CC1=C(C)C(=O)c2ccccc2C1=O [Menatetrenone] | O |
| CCC1(c2ccccc2)NC(=O)N(C)C1=O (stereo not drawn) [Mephenytoin] | B |
| COc1c2occc2cc2ccc(=O)oc12 [Methoxsalen] | B |
| CC(C)(C(=O)c1cccnc1)c1cccnc1 [Metopiron] | O |
| CC#C[C@]1(O)CC[C@H]2[C@@H]3CCC4=CC(=O)CCC4=C3[C@@H](c3ccc(N(C)C)cc3)C[C@@]21C [Mifepristone] | B |
| NC(Cn1ccc(=O)c(O)c1)C(=O)O (stereo not drawn) [Mimosine] | O |
| O=C1c2c(O)ccc(O)c2C(=O)c2c(NCCNCCO)ccc(NCCNCCO)c21 [Mitoxantrone] | O |
| CCOC(=O)[N-]c1cn(N2CCOCC2)n[o+]1 [Molsidomine] | B |
| CC[C@@]1([C@@H]2O[C@@H]([C@H]3O[C@@](O)(CO)[C@H](C)C[C@@H]3C)C[C@@H]2C)CC[C@H]([C@]2(C)CC[C@]3(C[C@H](O)[C@@H](C)[C@@H]([C@@H](C)[C@@H](OC)[C@H](C)C(=O)O)O3)O2)O1 [Monensin] | O |
| O=C(Nc1cc2ccccc2cn1)c1ccccc1NCc1ccncc1 [N-3-isoquinolinyl-2-((4-pyridinylmethyl)amino)benzamide] | O |
| Nc1ccc(N2C(=O)C=CC2=O)cc1 [N-(4-aminophenyl)maleimide] | O |
| N#Cc1cccc2sc(C(=O)NC(=N)N)cc12 [N-(4-cyano-benzo (b)thiophene-2-carbonyl)guanidine] | O |
| C[C@H](NC(CCCCCCCN)C(=O)O)C(=O)N1CCC[C@H]1C(=O)O (stereo partly drawn) [N-(8-amino-1-carboxyoctyl)-alanyl-proline] | O |
| O=C[C@@H]1CCCN1C(=O)[C@@H]1CCCN1C(=O)OCc1ccccc1 [N-benzyloxycarbonylprolyl-prolinal] (Cbz-Pro-Pro-aldehyde) | O |
| CCN1C(=O)C=CC1=O [N-ethylmaleimide] | O |

| Compound | Type: Type of interaction |
| --- | --- |
| C#CCOc1ccccc1CCCCCC(=O)NS(C)(=O)=O [N-methylsulfonyl-6-(2-propargyloxyphenyl)hexanamide] | O |
| COc1ccccc1N1CCN(CCCCN2C(=O)c3ccccc3C2=O)CC1 [NAN-190 hydrobromide] | B |
| O=C1C[C@@H](c2ccc(O)cc2)Oc2cc(O)cc(O)c21 [NARIGENIN] | O |
| O=C(O)C[C@H](O)C[C@H](O)/C=C/c1c(C2CC2)nc2ccccc2c1-c1ccc(F)cc1 [NK 104] | B |
| CNC(=O)[C@@H](Cc1ccccc1)N(C)C(=O)[C@@H](Cc1ccc2ccccc2c1)N(C)C(=O)/C=C/CC(C)(C)N [NN 703] | B |
| O=c1c(-c2ccc(O)cc2)coc2cc(O)cc(O)c12 [NPI 031L] | B |
| c1ccc2ccccc2c1 [Naftalen] | B |
| C=CCN1CC[C@]23c4c5ccc(O)c4O[C@H]2C(=O)CC[C@@]3(O)[C@H]1C5 [Naloxone] | O |
| O=C1CC[C@@]2(O)[C@H]3Cc4ccc(O)c5c4[C@@]2(CCN3CC2CC2)[C@H]1O5 [Naltrexone] | B |
| c1ccc2c(CC3=NCCN3)cccc2c1 [Naphazoline] | O |
| CCc1nn(CCCN2CCN(c3cccc(Cl)c3)CC2)c(=O)n1CCOc1ccccc1 [Nefazodone] | O |
| Cc1c(O)cccc1C(=O)N[C@@H](CSc1ccccc1)[C@H](O)CN1C[C@H]2CCCC[C@H]2C[C@H]1C(=O)NC(C)(C)C [Nelfinavir] | O |
| Cc1ccnc2c1NC(=O)c1cccnc1N2C1CC1 [Nevirapine] | O |
| NC(=O)c1cccnc1 [Niacinamide] | B |
| O=C(OCC(COC(=O)c1cccnc1)(COC(=O)c1cccnc1)COC(=O)c1cccnc1)c1cccnc1 [Niceritrol] | O |
| CO[C@@H]1C[C@@H](C[C@H]2CC[C@H](C)[C@H]([C@@H](C)C(=O)O)O2)O[C@]2(O[C@](C)([C@H]3CC[C@@](C)([C@@H]4O[C@@H]([C@H]5O[C@@](O)(CO)[C@H](C)C[C@@H]5C)C[C@@H]4C)O3)C[C@H]2C)[C@@H]1C [Nigericin] | O |
| COc1ccc(-c2cc(=O)c3c(OC)c(OC)c(OC)c(OC)c3o2)cc1OC [Nobiletin] | O |
| CC(Cc1ccc(O)c(O)c1)C(C)Cc1ccc(O)c(O)c1 (stereo not drawn) [Nordihydroguaiaretic Acid] | B |
| C#C[C@]1(O)CC[C@H]2[C@@H]3CCC4=CC(=O)CC[C@@H]4[C@H]3CC[C@@]21C [Norethindrone] | O |
